Results reported in patent US7838529B2, “Xanthine derivates, their preparation and their use in pharmaceutical compositions” (Boehringer Ingelheim International GmbH, priority 2002, dated 2010).

System: not listed separately
Assay: Tolerability after oral administration to rats (behavior)
Type: in vivo
Settings: 10 mg/kg

SMILES | changes in the animals' behavior
CC#CCn1c(N2CCC[C@@H](N)C2)nc2c1c(=O)n(CC(=O)c1ccccc1NC(=O)C1CC1)c(=O)n2C [Example 1 (5), 1-(2-{2-[(cyclopropylcarbonyl)amino]phenyl}-2-oxoethyl)-3-methyl-7-(2-butyn-1-yl)-8-((R)-3-aminopiperidin-1-yl)xanthine] | no changes in the animals' behavior could be detected

Biological target: T1, DPP-IV (Homo sapiens, UniProt P27487)
T1 construct: an extract of human colon carcinoma cell line Caco-2 is used as the DPP-IV source; endogenous in cells; host or cells: Caco-2 (human colon carcinoma), differentiated to induce DPP-IV expression
T1 sequence (P27487 whole entry): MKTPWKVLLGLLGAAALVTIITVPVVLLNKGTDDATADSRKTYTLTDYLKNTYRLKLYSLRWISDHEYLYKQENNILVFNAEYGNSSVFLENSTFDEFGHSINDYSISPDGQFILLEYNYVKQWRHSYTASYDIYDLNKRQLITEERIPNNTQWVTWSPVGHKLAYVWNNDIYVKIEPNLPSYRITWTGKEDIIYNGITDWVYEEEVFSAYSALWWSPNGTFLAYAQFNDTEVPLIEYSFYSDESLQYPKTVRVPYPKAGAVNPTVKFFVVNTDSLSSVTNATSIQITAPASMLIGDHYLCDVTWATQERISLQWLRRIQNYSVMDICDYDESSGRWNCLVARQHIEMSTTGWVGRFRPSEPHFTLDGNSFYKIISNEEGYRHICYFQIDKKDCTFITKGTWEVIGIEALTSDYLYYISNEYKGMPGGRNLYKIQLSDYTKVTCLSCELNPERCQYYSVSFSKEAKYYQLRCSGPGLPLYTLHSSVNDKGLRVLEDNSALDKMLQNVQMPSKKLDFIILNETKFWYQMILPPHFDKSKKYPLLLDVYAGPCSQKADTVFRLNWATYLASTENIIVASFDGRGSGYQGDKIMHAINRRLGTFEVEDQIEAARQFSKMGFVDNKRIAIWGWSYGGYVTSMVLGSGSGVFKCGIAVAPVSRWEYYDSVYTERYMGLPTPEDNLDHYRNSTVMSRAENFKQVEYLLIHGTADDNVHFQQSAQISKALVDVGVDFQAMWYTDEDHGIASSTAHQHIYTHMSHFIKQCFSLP
Assay: DPP-IV assay with Caco-2 cell extract as DPP-IV source
Type: biochemical
Settings: extract of human colon carcinoma cell line Caco-2; AFC substrate 100 μM; 60 minutes at ambient temperature; read-out: DPP-IV inhibition IC50
Protocol: The differentiation of the cells in order to induce the DPP-IV expression was carried out as described by Reiher et al., “Increased Expression of Intestinal Cell Line Caco-2”, Proc. Natl. Acad. Sci. Vol. 90, pages 5757-5761 (1993). The cell extract was obtained from cells solubilized in a buffer (10 mM Tris HCl, 0.15 M NaCl, 0.04 t.i.u. aprotinin, 0.5% Nonidet P-40, pH 8.0) by centrifuging at 35,000 g for 30 minutes at 4° C. (to remove cell debris).
The DPP-IV assay was carried out as follows:
50 μL substrate solution (AFC; AFC is amido-4-trifluoromethylcoumarin), final concentration 100 μM, were placed in black microtitre plates. 20 μL of assay buffer (final concentrations 50 mM Tris HCl pH 7.8, 50 mM NaCl, 1% DMSO) was pipetted in. The reaction was started by adding 30 μL of solubilized Caco-2 protein (final concentration 0.14 μg of protein per well). The test substances to be investigated were typically added prediluted in 20 μL, and the volume of assay buffer was then reduced accordingly. The reaction was carried out at ambient temperature, incubating for 60 minutes. Then the fluorescence was measured in a Victor 1420 Multilabel Counter, the excitation wavelength being 405 nm and the emission wavelength being 535 nm. Blank readings (corresponding to 0% activity) were obtained in mixtures without any Caco-2 protein (volume replaced by assay buffer), control values (corresponding to 100% activity) were obtained in mixtures with no substance added. […]

SMILES | IC50
CC(C)=CCn1c(N2CCCC(N)C2)nc2c1c(=O)n(CC(=O)c1ccccc1NC(=O)C1CC1)c(=O)n2C (stereo not drawn) [1 (1), 1-(2-{2-[(cyclopropylcarbonyl)amino]phenyl}-2-oxoethyl)-3-methyl-7-(3-methyl-2-buten-1-yl)-8-(3-aminopiperidin-1-yl)xanthine] | 11 nM
CC#CCn1c(N2CCCC(N)C2)nc2c1c(=O)n(CC(=O)c1ccccc1NC=O)c(=O)n2C (stereo not drawn) [1 (2), 1-[2-(2-formylaminophenyl)-2-oxoethyl]-3-methyl-7-(2-butyn-1-yl)-8-(3-aminopiperidin-1-yl)xanthine] | 3 nM
C/C=C/Cn1c(N2CCC[C@@H](N)C2)nc2c1c(=O)n(CC(=O)c1ccccc1NC(=O)C1CC1)c(=O)n2C [1 (3), 1-(2-{2-[(cyclopropylcarbonyl)amino]phenyl}-2-oxoethyl)-3-methyl-7-((E)-2-buten-1-yl)-8-((R)-3-aminopiperidin-1-yl)xanthine] | 4 nM
C/C=C/Cn1c(N2CCC[C@H](N)C2)nc2c1c(=O)n(CC(=O)c1ccccc1NC(=O)C1CC1)c(=O)n2C [1 (4), 1-(2-{2-[(cyclopropylcarbonyl)amino]phenyl}-2-oxoethyl)-3-methyl-7-((E)-2-buten-1-yl)-8-((S)-3-aminopiperidin-1-yl)xanthine] | 3 nM
CC#CCn1c(N2CCC[C@H](N)C2)nc2c1c(=O)n(CC(=O)c1ccccc1NC(=O)C1CC1)c(=O)n2C [1 (6), 1-(2-{2-[(cyclopropylcarbonyl)amino]phenyl}-2-oxoethyl)-3-methyl-7-(2-butyn-1-yl)-8-((S)-3-aminopiperidin-1-yl)xanthine] | 5 nM
C/C=C/Cn1c(N2CCCC(N)C2)nc2c1c(=O)n(CC(=O)c1ccccc1NC(=O)c1ccccn1)c(=O)n2C (stereo not drawn) [1 (7), 1-[2-(2-{[(pyridin-2-yl)carbonyl]amino}phenyl)-2-oxoethyl]-3-methyl-7-((E)-2-buten-1-yl)-8-(3-aminopiperidin-1-yl)xanthine] | 8 nM
CC#CCn1c(N2CCC[C@@H](N)C2)nc2c1c(=O)n(CC(=O)c1ccccc1NC(=O)C1CC1)c(=O)n2C [Example 1 (5), 1-(2-{2-[(cyclopropylcarbonyl)amino]phenyl}-2-oxoethyl)-3-methyl-7-(2-butyn-1-yl)-8-((R)-3-aminopiperidin-1-yl)xanthine] | 3 nM
CC(C)=CCn1c(N2CCCC(N)C2)nc2c1c(=O)n(CC(=O)c1ccccc1NC=O)c(=O)n2C (stereo not drawn) [Example 1, 1-[2-(2-formylaminophenyl)-2-oxoethyl]-3-methyl-7-(3-methyl-2-buten-1-yl)-8-(3-aminopiperidin-1-yl)xanthine] | 5 nM
